Data published in patent US6461587B1, “Perfluoroalkylamides, their production and their use in diagnosis” (Schering Aktiengesellschaft, priority 1999, dated 2002).

Assays:
[1] = Relaxivity of compounds according to the invention; format: physicochemical; conditions: 0.47 T and 37° C.
Text: Relaxivity of Compounds According to the Invention

[2] = Lymph node visualization (MRT) after interstitial administration of contrast medium; format: in vivo; conditions: guinea pigs, 10 μmol of Gd/kg s.c., 15 or 30 minutes, T1-weighted gradient echo images
Description: MR images of popliteal, inguinal and iliac lymph nodes both before (Precontrast) and 15 or 30 minutes after subcutaneous administration (guinea pigs, hind paw, interdigital space) of the substance of Example 5e or of Example 3c (in each case 10 μmol of Gd/kg of body weight) were taken.

[3] = Retention of the opacifying metal at the injection site; format: in vivo; conditions: guinea pig, 10 μmol Gd/kg s.c.
Text: After s.c. administration of 10 μmol of total gadolinium/kg of body weight in the guinea pig paw, the retention of metal at the injection site was studied at different times.

[4] = Organ distribution of the contrast medium after s.c. administration; format: in vivo; conditions: guinea pigs, 10 μmol Gd/kg s.c., 7 days after administration
Description: After subcutaneous administration of 10 μmol of total gadolinium/kg of body weight in the hind paw of stimulated guinea pigs (complete Freund adjuvant; 0.1 ml i.m in the right and left lower leg in each case; 2 weeks before the test are administered), the retention of the metal in the […] as in the kidneys and spleen was examined 7 days administration.

[5] = Compatibility of compounds according to the invention (LD 50); conditions: in vivo
Text: Compatibility of Compounds According to the Invention

[6] = Blood level and pharmacokinetics after intravenous administration, in vivo comparison with Dy-DTPA; conditions: rats, i.v. 100 μmol/kg; for Vd ss / α-t½ / β-t½: n=3; for blood concentrations compared with Dy-DTPA: all examination times 1-120 minutes p.i.
Description: Three 350 g male (Schering-SPF) rats are used as test animals. 0.33-0.37 ml (in each case 100 mmol/L) of the following contrast medium solution is administered intravenously to each animal: mixture of 1 part each of a perfluoroalkyl-containing compound and the dysprosium-complex of (Dy-DTPA). The administered dose is in each case 100 μmol of Gd or Dy/kg of body weight. Via a catheter in the common carotid artery, blood samples are taken at the following times: 1, 3, 5, 10, 15, 20, 30, 45, 60, 90, 120 minutes p.i. In the blood samples that are obtained, in each case the concentrations of gadolinium (Gd) and dysprosium (Dy) are measured in parallel using atomic emission spectrometry (ICP-AES). The proportion of the injected compounds (Gd-containing perfluoroalkyl-containing compound and Dy-containing comparison substance) that remains in the blood space can be compared in the same animal by the different labeling. The α- and β-half life, the distribution volume and the total clearance can be calculated from the blood concentrations using special software (Topfit program). […]

[7] = Table 1: plasma, mixture of 5e and Dy-DTPA
[8] = Table 2: plasma, mixture of 4c and Dy-DTPA

| Molecule | Gadolinium Content at the Injection Site (Paw) ([3]; 7 days p.i.) | Gadolinium Content in Kidneys [4] | Gadolinium Content in Liver [4] | Gadolinium Content in Spleen [4] | R1 in Plasma [1] | R1 in Water [1] | MR signal in popliteal, inguinal and iliac lymph nodes of the injected body side vs non-injected side or precontrast [2] | Gadolinium Content at the Injection Site (Paw) ([3]; 30 min. p.i.) | Gadolinium Content at the Injection Site (Paw) ([3]; 90 min. p.i.) | LD 50 [5] | Vd ss [6, 7] | α-t½ [6, 7] | β-t½ [6, 7] | Vd ss [6, 8] | α-t½ [6, 8] | β-t½ [6, 8] | distribution volume compared to Dy-DTPA [6] | blood concentrations compared with Dy-DTPA [6] |
| --- | --- | --- | --- | --- | --- | --- | --- | --- | --- | --- | --- | --- | --- | --- | --- | --- | --- | --- |
| CC(C(=O)NCC(=O)N(CCOCCO)CCOCCC(F)(F)C(F)(F)C(F)(F)C(F)(F)C(F)(F)C(F)(F)C(F)(F)C(F)(F)F)N1CCN(CC(=O)[O-])CCN(CC(=O)[O-])CCN(CC(=O)[O-])CC1.[Gd+3] (stereo not shown) [Example 3c] | 1.7% of dose | 0.1% of dose | 1.3% of dose | 0.0% of dose | 21.0 L/mmol/s | 14.0 L/mmol/s | strong signal increase | 6.5% of dose | 4.9% of dose | 8 mmol of Gd/kg of body weight | – | – | – | – | – | – | – | – |
| CC(C(=O)NCC(=O)N(CCOCCC(F)(F)C(F)(F)C(F)(F)C(F)(F)C(F)(F)C(F)(F)C(F)(F)C(F)(F)F)CC(O)CO)N1CCN(CC(=O)[O-])CCN(CC(=O)[O-])CCN(CC(=O)[O-])CC1.[Gd+3] (stereo not shown) [Example 2c] | – | – | – | – | 19.6 L/mmol/s | 11.8 L/mmol/s | – | – | – | 3 mmol of Gd/kg of body weight | – | – | – | – | – | – | – | – |
| Dy-DTPA [reference compound] | – | – | – | – | – | – | – | – | – | – | 0.29 ± 0.09 L/kg | 2.19 ± 0.59 min | 62.59 ± 37.47 min | 0.15 ± 0.03 L/kg | 0.89 ± 0.32 min | 21.37 ± 2.18 min | – | – |
| COCCOCCOCCOCCOCCN(CCOCCC(F)(F)C(F)(F)C(F)(F)C(F)(F)C(F)(F)C(F)(F)C(F)(F)C(F)(F)F)C(=O)CNC(=O)C(C)N1CCN(CC(=O)[O-])CCN(CC(=O)[O-])CCN(CC(=O)[O-])CC1.[Gd+3] (stereo not shown) [Example 5e] | – | – | – | – | 30.3 L/mmol/s | 12.4 L/mmol/s | strong signal increase | 8.5% of dose | 9.4% of dose | 15 mmol of Gd/kg of body weight | 0.16 ± 0.03 L/kg | 3.77 ± 0.75 min | 102.29 ± 24.48 min | – | – | – | significantly smaller distribution volume | significantly higher blood concentrations |
| CC(C(=O)NCC(=O)N(CCO)CCOCCC(F)(F)C(F)(F)C(F)(F)C(F)(F)C(F)(F)C(F)(F)C(F)(F)C(F)(F)F)N1CCN(CC(=O)[O-])CCN(CC(=O)[O-])CCN(CC(=O)[O-])CC1.[Gd+3] (stereo not shown) [Example 4c] | – | – | – | – | 21.9 L/mmol/s | 14.4 L/mmol/s | – | – | – | 0.3 mmol of Gd/kg of body weight | – | – | – | 0.12 ± 0.00 L/kg | 1.01 ± 0.32 min | 79.68 ± 12.26 min | significantly smaller distribution volume | significantly higher blood concentrations |
| COCCN(CCOCCC(F)(F)C(F)(F)C(F)(F)C(F)(F)C(F)(F)C(F)(F)C(F)(F)C(F)(F)F)C(=O)CNC(=O)C(C)N1CCN(CC(=O)[O-])CCN(CC(=O)[O-])CCN(CC(=O)[O-])CC1.[Gd+3] (stereo not shown) [Example 1c] | – | – | – | – | 25.7 L/mmol/s | 13.8 L/mmol/s | – | – | – | – | – | – | – | – | – | – | – | – |
| CC(C(=O)NCC(=O)NCCNS(=O)(=O)C(F)(F)C(F)(F)C(F)(F)C(F)(F)C(F)(F)C(F)(F)C(F)(F)C(F)(F)F)N1CCN(CC(=O)[O-])CCN(CC(=O)[O-])CCN(CC(=O)[O-])CC1.[Gd+3] (stereo not shown) [Example 10c, 1,4,7-Tris(carboxylatomethyl)-10-{(3-aza-4-oxo-hexan-5-ylic)-acid-N-[(2-perfluorooctylsulfonylamino)-ethyl]-amide}-1,4,7,10-tetraazacyclododecane, gadolinium complex] | – | – | – | – | 27.8 L/mmol/s | 21.6 L/mmol/s | – | – | – | – | – | – | – | – | – | – | – | – |

Second part, led by results:

| Gadolinium Content at the Injection Site (Paw) ([3]; 7 days p.i.) | Gadolinium Content in Kidneys [4] | Gadolinium Content in Liver [4] | Gadolinium Content in Spleen [4] | Molecule | R1 in Plasma [1] | R1 in Water [1] | MR signal in popliteal, inguinal and iliac lymph nodes of the injected body side vs non-injected side or precontrast [2] | Gadolinium Content at the Injection Site (Paw) ([3]; 30 min. p.i.) | Gadolinium Content at the Injection Site (Paw) ([3]; 90 min. p.i.) | LD 50 [5] | Vd ss [6, 7] | α-t½ [6, 7] | β-t½ [6, 7] | Vd ss [6, 8] | α-t½ [6, 8] | β-t½ [6, 8] | distribution volume compared to Dy-DTPA [6] | blood concentrations compared with Dy-DTPA [6] |
| --- | --- | --- | --- | --- | --- | --- | --- | --- | --- | --- | --- | --- | --- | --- | --- | --- | --- | --- |
| 0.6% of dose | 0.1% of dose | 1.5% of dose | 0.0% of dose | 1,4,7-Tris(carboxylatomethyl)-10-{(3-aza-4-oxo-hexan-5-ylic)-acid- [N-4,7,10,17-tetraoxa-14-aza-17-oxo-C20-C28-hepta-decafluoro)-heptacosyl]-amide}-1,4,7,10-tetraazacyclododecane, gadolinium complex [Example 6b] | 13.3 L/mmol/s | 11.6 L/mmol/s | – | 66.4% of dose | 26.1% of dose | – | – | – | – | – | – | – | – | – |
| 1.3% of dose | 0.2% of dose | 6.2% of dose | 0.0% of dose | CC(C(=O)NCC(=O)NCCOCCC(F)(F)C(F)(F)C(F)(F)C(F)(F)C(F)(F)C(F)(F)C(F)(F)C(F)(F)F)N1CCN(CC(=O)[O-])CCN(CC(=O)[O-])CCN(CC(=O)[O-])CC1.[Gd+3] (stereo not shown) [Example 7, 1,4,7-Tris(carboxylatomethyl)-10-[-(3-aza-4-oxo-hexan-5-ylic)-acid-N-(1H,1H,2H,2H,4H,4H,5H,5H-3-oxa-perfluorotridecyl)-amide]-1,4,7, 10-tetraaza-cyclododecane, gadolinium complex] | 21.0 L/mmol/s | 18.1 L/mmol/s | – | 54.2% of dose | 36.8% of dose | – | – | – | – | – | – | – | – | – |
